The source of these data is ChEMBL document CHEMBL3407401, “Development of certain novel N-(2-(2-(2-oxoindolin-3-ylidene)hydrazinecarbonyl)phenyl)-benzamides and 3-(2-oxoindolin-3-ylideneamino)-2-substituted quinazolin-4(3H)-ones as CFM-1 analogs: design, synthesis, QSAR analysis and anticancer activity” (Eur J Med Chem, 2015).

In assay [1] the test system is MDA-MB-231. Description: Cytotoxicity against human MDA-MB-231 cells assessed as inhibition of cell survival at 25 ug/ml after 24 hrs by MTT assay. The format is functional. The settings on record: MDA-MB-231, 24 h. In general terms: Tetrazolium assays rely on reduction of a dye to a coloured formazan, in cell work by metabolically active cells.
Assay [2] can be described thus: Cytotoxicity against human HuH7 cells assessed as inhibition of cell survival at 25 ug/ml after 24 hrs by MTT assay. The format is functional. The settings on record: Huh-7, 24 h.
Assay [3] deals with HeLa. Description: Cytotoxicity against human HeLa cells assessed as inhibition of cell survival after 24 hrs by MTT assay. The format is functional, cell-based.
In assay [4] the test system is HeLa. Description: Cytotoxicity against human HeLa cells assessed as inhibition of cell survival at 25 ug/ml after 24 hrs by MTT assay. The format is functional.
The test system of assay [5] is Daoy. Description: Cytotoxicity against human DaOY cells assessed as inhibition of cell survival after 24 hrs by MTT assay. The format is functional, cell-based.
Assay [6] concerns Daoy. Description: Cytotoxicity against human DaOY cells assessed as inhibition of cell survival at 25 ug/ml after 24 hrs by MTT assay. The format is functional.
Assay [7] can be described thus: Cytotoxicity against human UW228-2 cells assessed as inhibition of cell survival at 25 ug/ml after 24 hrs by MTT assay. The format is functional. The settings on record: UW228-2, 24 h.
A short description of assay [8]: Cytotoxicity against human HuH7 cells assessed as inhibition of cell survival after 24 hrs by MTT assay. The format is functional, cell-based. The settings on record: Huh-7, 24 h.
The nature of assay [9]: Cytotoxicity against human UW228-2 cells assessed as inhibition of cell survival after 24 hrs by MTT assay. The format is functional, cell-based. The settings on record: UW228-2, 24 h.
Assay [10] deals with MDA-MB-231. Description: Cytotoxicity against human MDA-MB-231 cells assessed as inhibition of cell survival after 24 hrs by MTT assay. The format is functional, cell-based. The conditions noted are these: MDA-MB-231, 24 h.

Values after ≈ are worked out from the molar mass of the structure shown.

Consider `Cc1ccc(-c2nc3ccccc3c(=O)n2/N=C2\C(=O)Nc3ccc([N+](=O)[O-])cc32)cc1`, for which the inhibition at 25 µg/mL came out at 23.6% in assay [1]; 0% in assay [2]; 52.9% in assay [4]; 58.8% in [6]; 22.8% in [7]. For the same molecule, the IC50 is 21.1 µg/mL (≈ 49.7 µM) in assay [3] and 11.7 µg/mL (≈ 27.4 µM) in assay [5].
As to `O=C1Nc2ccccc2/C1=N/n1c(-c2cccs2)nc2ccccc2c1=O`, the inhibition at 25 µg/mL is 10.7% in assay [1]; 0% in assay [2]; 36.2% in assay [4]; 69.7% in assay [6]; 0% in [7]. Also, the IC50 in assay [5] was found to be 5.4 µg/mL (≈ 14.5 µM).
In the case of `Cc1ccc(C(=O)Nc2ccccc2C(=O)N/N=C2\C(=O)Nc3ccc([N+](=O)[O-])cc32)cc1`, the inhibition at 25 µg/mL in assay [1] was found to be 30.2%; in [2] it was 55.2%; in [4] it was 26.8%; in assay [6], 75.8%; in [7], 38.5%. Besides, the IC50 came to 6.61 µg/mL (≈ 14.9 µM) in assay [5] and 11.6 µg/mL (≈ 26.2 µM) in assay [8].
On to `Cc1ccc2c(c1)/C(=N/NC(=O)c1ccccc1NC(=O)c1ccc([N+](=O)[O-])cc1)C(=O)N2`, for which the inhibition at 25 µg/mL in assay [1] was determined as 40.8%; in assay [2] it was 55.8%; in assay [4], 46.1%; in [6], 62.7%; in assay [7] it was 58.7%. Further, the results for the IC50 in [9], in assay [5] and in assay [8] were 9.62 µg/mL (≈ 21.7 µM), 11.9 µg/mL (≈ 26.7 µM) and 19.3 µg/mL (≈ 43.5 µM), respectively.
Regarding `O=C1Nc2ccc(Cl)cc2/C1=N/NC(=O)c1ccccc1NC(=O)c1ccc([N+](=O)[O-])cc1`, the inhibition at 25 µg/mL in assay [1] came out at 35.5%; in assay [2], 43.1%; in assay [4], 31%; in assay [6], 36.6%; in assay [7], 41.6%.
With `Cc1ccc(-c2nc3ccccc3c(=O)n2/N=C2\C(=O)Nc3ccc(Cl)cc32)cc1`, the inhibition at 25 µg/mL stood at 78.1% in assay [1]; 83.3% in [2]; 80.8% in assay [4]; 75.4% in [6]; 88% in assay [7]. Besides, the IC50 worked out at 5.7 µg/mL (≈ 13.7 µM) in assay [9]; 8.6 µg/mL (≈ 20.7 µM) in assay [3]; 1.46 µg/mL (≈ 3.52 µM) in [5]; 4.8 µg/mL (≈ 11.6 µM) in assay [10]; 3.76 µg/mL (≈ 9.06 µM) in [8].
Consider `COc1ccc2c(c1)/C(=N/NC(=O)c1ccccc1NC(=O)c1ccc(C)cc1)C(=O)N2`, for which the inhibition at 25 µg/mL came out at 59.4% in assay [1]; 81.6% in [2]; 80.3% in [4]; 77.2% in [6]; 84.8% in assay [7]. Moreover, the IC50 in assay [9] was 5.82 µg/mL (≈ 13.6 µM); in [3], 8.09 µg/mL (≈ 18.9 µM); in assay [5], 4.42 µg/mL (≈ 10.3 µM); in assay [10], 10.9 µg/mL (≈ 25.4 µM); in assay [8] it was 4.6 µg/mL (≈ 10.7 µM).
On to `O=C1Nc2ccccc2/C1=N/NC(=O)c1ccccc1NC(=O)c1ccc([N+](=O)[O-])cc1`, for which the inhibition at 25 µg/mL was determined as 44.9% in assay [1]; 48.6% in assay [2]; 55% in assay [4]; 79.1% in assay [6]; 51.8% in assay [7]. For the same molecule, the IC50 in assay [9] was 20 µg/mL (≈ 46.6 µM); in [3], 16.5 µg/mL (≈ 38.5 µM); in assay [5] it was 2.72 µg/mL (≈ 6.33 µM).
Take `Cc1ccc(C(=O)Nc2ccccc2C(=O)N/N=C2\C(=O)Nc3ccc(C)cc32)cc1`: the inhibition at 25 µg/mL in assay [1] is 37.7%; in assay [2], 38%; in [4], 46.5%; in assay [6] it was 49.1%; in assay [7], 23.2%.
Turning to `O=C1Nc2ccc([N+](=O)[O-])cc2/C1=N/n1c(-c2cccs2)nc2ccccc2c1=O`, the inhibition at 25 µg/mL came to 0% in assay [1]; 0% in [2]; 0% in assay [4]; 18.4% in [6]; 0% in [7].
With `Cc1ccc(-c2nc3ccccc3c(=O)n2/N=C2\C(=O)Nc3ccc(C)cc32)cc1`, the inhibition at 25 µg/mL came to 34.3% in assay [1]; 7.2% in assay [2]; 42.8% in assay [4]; 47% in assay [6]; 2.1% in [7].
For `O=C1Nc2ccc(Cl)cc2/C1=N/n1c(-c2cccs2)nc2ccccc2c1=O`, the inhibition at 25 µg/mL in assay [1] came out at 6.1%; in assay [2] it was 0%; in assay [4], 69.7%; in [6] it was 69.3%; in assay [7], 28.4%. The IC50 in assay [3] came to 17 µg/mL (≈ 41.7 µM); in assay [5], 15.7 µg/mL (≈ 38.5 µM).
Turning to `Cc1cc(Br)cc2c1NC(=O)/C2=C1\SC(=S)NC1=O`, the inhibition at 25 µg/mL came to 52.5% in assay [1]; 61.8% in assay [2]; 57.6% in [4]; 64.8% in assay [6]; 51.4% in assay [7]. Also, the IC50 in assay [9] was 16.4 µg/mL (≈ 46.2 µM); in [3], 13.5 µg/mL (≈ 38 µM); in assay [5] it was 8.12 µg/mL (≈ 22.9 µM); in [10] it was 19.7 µg/mL (≈ 55.5 µM); in [8], 8.18 µg/mL (≈ 23 µM).
For the molecule `COc1ccc2c(c1)/C(=N/n1c(-c3cccs3)nc3ccccc3c1=O)C(=O)N2`, the inhibition at 25 µg/mL in assay [1] came to 13.6%; in [2] it was 62.7%; in assay [4], 67%; in assay [6], 80.5%; in assay [7], 56.4%. Besides, the IC50 in assay [9] amounted to 21.4 µg/mL (≈ 53.2 µM); in assay [3], 11 µg/mL (≈ 27.3 µM); in assay [5], 3.25 µg/mL (≈ 8.08 µM); in assay [8], 19.9 µg/mL (≈ 49.5 µM).
Turning to `Cc1ccc(-c2nc3ccccc3c(=O)n2/N=C2\C(=O)Nc3ccccc32)cc1`, the inhibition at 25 µg/mL in [1] worked out at 24.7%; in [2], 2.9%; in [4] it was 42.3%; in assay [6], 41.4%; in assay [7], 9.3%.
Regarding `Cc1ccc(C(=O)Nc2ccccc2C(=O)N/N=C2\C(=O)Nc3ccc(Cl)cc32)cc1`, the inhibition at 25 µg/mL was determined as 85% in [1]; 84.1% in assay [2]; 86.7% in assay [4]; 77.1% in assay [6]; 88.7% in assay [7]. The IC50 in [9] was determined as 6.87 µg/mL (≈ 15.9 µM); in assay [3], 6.52 µg/mL (≈ 15.1 µM); in [5] it was 1.86 µg/mL (≈ 4.3 µM); in assay [10], 5.95 µg/mL (≈ 13.7 µM); in [8], 3.2 µg/mL (≈ 7.39 µM).
As for `COc1ccc2c(c1)/C(=N/NC(=O)c1ccccc1NC(=O)c1ccc([N+](=O)[O-])cc1)C(=O)N2`, the inhibition at 25 µg/mL in assay [1] was 34.8%; in assay [2], 33.2%; in [4] it was 16.3%; in assay [6], 11.1%; in assay [7], 24.5%.
As for `Cc1ccc2c(c1)/C(=N/n1c(-c3cccs3)nc3ccccc3c1=O)C(=O)N2`, the inhibition at 25 µg/mL in assay [1] was found to be 29.5%; in [2], 32.9%; in assay [4], 57.8%; in [6], 59.4%; in [7] it was 32.1%. Also, the IC50 in assay [3] is 19.3 µg/mL (≈ 49.9 µM); in assay [5] it was 19 µg/mL (≈ 49.1 µM).
With `Cc1ccc(C(=O)Nc2ccccc2C(=O)N/N=C2\C(=O)Nc3ccccc32)cc1`, the inhibition at 25 µg/mL in assay [1] stood at 46.8%; in assay [2] it was 56.4%; in [4], 30.4%; in [6] it was 72.8%; in assay [7], 71.7%. Also, the IC50 in [9] amounted to 6.06 µg/mL (≈ 15.2 µM); in assay [5], 3.94 µg/mL (≈ 9.89 µM); in [8] it was 5 µg/mL (≈ 12.5 µM).
Take `O=C1Nc2ccc([N+](=O)[O-])cc2/C1=N/NC(=O)c1ccccc1NC(=O)c1ccc([N+](=O)[O-])cc1`: the inhibition at 25 µg/mL turned out to be 0% in [1]; 8.2% in assay [2]; 14.7% in [4]; 31.9% in assay [6]; 4.8% in assay [7].
`COc1ccc2c(c1)/C(=N/n1c(-c3ccc(C)cc3)nc3ccccc3c1=O)C(=O)N2`: the inhibition at 25 µg/mL in assay [1] worked out at 35.4%; in assay [2], 53.6%; in assay [4], 68%; in [6], 82.8%; in assay [7], 58.9%. The IC50 in [9] stood at 20.8 µg/mL (≈ 50.7 µM); in assay [3], 9.89 µg/mL (≈ 24.1 µM); in assay [5], 3.61 µg/mL (≈ 8.8 µM); in assay [8] it was 22.8 µg/mL (≈ 55.6 µM).

A word on the inhibition: it is how much of the control response was suppressed. The IC50 is the concentration at which inhibition is half-maximal.
